From paper PMC8920097, “Prediction of hERG inhibition of drug discovery compounds using biomimetic HPLC measurements” (ADMET & DMPK, 2021)
Like-named read-outs stand apart in the source and are kept apart here.

Experiments:
[1] = target: human serum albumin (HSA) (Homo sapiens, UniProt P02768); experiment: Protein binding on Chiralpak HSA HPLC column
Experimental: (§1) The measurement of the biomimetic properties of the available drugs was conducted in our laboratories. Generic gradient HPLC methods were used to determine the chromatographic hydrophobicity Index (CHI) using mobile phases at three different pH values. The protein binding of the compounds was measured using immobilised human serum albumin (HSA), and alpha-1-acid-glycoprotein (AGP) stationary phases. The phospholipid-binding was measured using the immobilised artificial membrane (IAM) stationary phase. The aim was to establish relationships between the cardiotoxicity potential and the biomimetic binding properties of the drugs and to evaluate their predictive performance.

[2] = tested on: alpha-1-acid-glycoprotein (AGP); experiment: Protein binding on Chiralpak AGP HPLC column
Experimental: as §1

[3] = tested on: hERG channel; conditions: cited from earlier work
[4] = CHI lipophilicity by gradient reversed-phase HPLC (Gemini NX-C-18); conditions: for chromatographic logD: Gemini NX-C-18 reversed-phase HPLC column, pH 7.4; for chromatographic logP: reversed-phase HPLC, Gemini NX-C-18 column (50 x 3 mm, 5 µm)
Experimental: The Chromatographic Hydrophobicity Index (CHI) was measured using the compounds’ calibrated gradient retention times obtained from an Agilent 1100 HPLC fitted with a Gemini NX-C-18 column (Phenomenex Ltd Macclesfield, UK) with dimensions of 50 x 3 mm and 5 μm particle size. […] The mobile phase B was 100 % acetonitrile. […] An acetonitrile linear gradient was used from 0 to 100 %. […] The retention time values for a standard set of compounds listed in Table 1 were used to convert the drug retention times to CHI values.

[5] = Phospholipid binding at pH 7.4 on IAM PC.DD2 HPLC column; format: physicochemical; set-up: key to CHI IAM: approximates acetonitrile concentration (%) in mobile phase at elution; conditions: for CHI IAM: pH 7.4; for log k IAM: pH 7.4, derived from CHI IAM by equation 1
Experimental: The phospholipid-binding was measured using an IAM PC.DD2 column with dimensions of 100 x 4.6 mm (Regis Technologies Inc., Morton Grove, IL, USA). The gradient retention times were measured using a 50 mM ammonium acetate mobile phase with the pH adjusted to 7.4. The mobile phase flow rate was 1.5 mL/min. […] The cycle time was 6 min, plus an additional 1 min equilibration time was applied while the injector prepared for the next injection. The gradient retention times were calibrated with the acetophenone homologues for which the CHI IAM values have been established using isocratic measurements. […] The CHI Index on the IAM column (CHI IAM) approximates the acetonitrile concentration in the mobile phase when the compound elutes. […] The CHI IAM values have been converted to log k IAM values derived from the CHI IAM values using equation 1. It represents the equivalent value derived from several isocratic measurements with extrapolated log retention factors to 100 % aqueous mobile phase. The log k IAM values can be converted to log K (IAM) values and show linear relationships with the octanol/water partition coefficients.

[6] = Charge character of the drugs at pH 7.4; format: physicochemical
[7] = literature values, mean where several reported, molar

Chain of human serum albumin (HSA) (P02768 25-609): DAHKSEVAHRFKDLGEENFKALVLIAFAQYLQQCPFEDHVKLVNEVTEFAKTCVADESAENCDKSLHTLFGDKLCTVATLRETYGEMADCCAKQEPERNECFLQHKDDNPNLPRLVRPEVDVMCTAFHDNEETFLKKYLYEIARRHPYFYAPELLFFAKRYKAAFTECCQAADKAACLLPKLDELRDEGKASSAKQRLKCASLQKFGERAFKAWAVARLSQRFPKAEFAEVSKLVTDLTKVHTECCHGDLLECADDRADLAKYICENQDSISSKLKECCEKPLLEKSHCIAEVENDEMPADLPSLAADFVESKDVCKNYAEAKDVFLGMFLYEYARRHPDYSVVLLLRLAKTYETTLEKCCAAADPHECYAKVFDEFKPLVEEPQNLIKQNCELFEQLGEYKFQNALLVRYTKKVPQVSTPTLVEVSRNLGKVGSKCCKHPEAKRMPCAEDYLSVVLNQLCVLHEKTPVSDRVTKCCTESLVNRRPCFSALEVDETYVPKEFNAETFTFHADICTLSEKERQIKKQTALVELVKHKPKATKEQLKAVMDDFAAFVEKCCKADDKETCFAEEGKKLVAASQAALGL

Compound	log k HSA ([1]; pH 7.4, Chiralpak HSA)	log k AGP ([2]; pH 7.4, Chiralpak AGP)	hERG pIC50 [3]	chromatographic logD [4]	chromatographic logP [4]	CHI IAM [5]	log k IAM [5]	Charge [6]	hERG pIC50 [3, 7]	log k HSA ([1]; human, pH 7.4)	log k AGP ([2]; pH 7.4)
COc1cc2nc(N(C)CCCNC(=O)C3CCCO3)nc(N)c2cc1OC (centres unmarked) [Alfuzosin]	0.08	0.32	4.28	–	–	–	–	–	–	–	–
CN(C)CCCN1c2ccccc2Sc2ccc(Cl)cc21 [Chlorpromazine]	–	1.79	–	-0.58	0.97	48.16	2.64	Basic	5.65	–	–
CN1CCN(C2=Nc3cc(Cl)ccc3Nc3ccccc32)CC1 [Clozapine]	1.04	0.99	–	2.6	3.05	52.42	2.83	Weak Base	–	–	–
CN(CCOc1ccc(NS(C)(=O)=O)cc1)CCc1ccc(NS(C)(=O)=O)cc1 [Dofetilide]	-0.05	0.59	5.72	1.18	1.12	–	–	Weak Base	–	–	–
O=c1[nH]c2ccccc2n1CCCN1CCC(n2c(=O)[nH]c3cc(Cl)ccc32)CC1 [Domperidone]	1.02	–	–	1.37	2.13	43.47	2.42	Weak Base	–	–	–
O=C(CCCN1CC=C(n2c(=O)[nH]c3ccccc32)CC1)c1ccc(F)cc1 [Droperidol]	0.98	1.69	–	2.26	2.68	–	–	Weak Base	–	–	–
CN1C2CCCC1CC(NC(=O)c1nn(C)c3ccccc13)C2 (centres unmarked) [Granisetron]	0.34	0.52	–	0.79	2.5	–	2.53	Basic	–	–	–
C[C@H]1COc2c(N3CCN(C)CC3)c(F)cc3c(=O)c(C(=O)O)cn1c23 [Levofloxacin]	–	-0.74	2.93	0.54	–	28.55	1.73	Zwitterionic	–	–	–
CNCCCC12CCC(c3ccccc31)c1ccccc12 [Maprotiline]	–	0.99	–	2.03	4.79	–	3.03	Basic	5.17	–	–
OC(c1cc(C(F)(F)F)nc2c(C(F)(F)F)cccc12)C1CCCCN1 (centres unmarked) [Mefloquine]	1.38	1.11	5.45	2.18	4.22	–	–	Basic	–	–	–
CCN(CC)CCNC(=O)c1cc(Cl)c(N)cc1OC [Metoclopramide]	–	–	–	–	–	–	–	Basic	5.27	0.15	0.23
COCC(=O)O[C@]1(CCN(C)CCCc2nc3ccccc3[nH]2)CCc2cc(F)ccc2[C@@H]1C(C)C [Mibefradil]	–	1.11	5.88	2.96	3.99	–	2.96	Basic	–	–	–
